{"source": "paper PMC5218480", "about": "(PLoS ONE, 2017)", "system": "MV-4-11 cells", "assay": "Gene expression microarray analysis (Affymetrix PrimeView) and GSEA", "format": "cell-based, human", "design": "RFU PODN (11730768_x_at) / Fold change /veh PODN (11730768_x_at) / RFU LINC00158 (11744669_a_at) / Fold change /veh LINC00158 (11744669_a_at) / RFU DUSP10 (11751237_a_at) / Fold change /veh DUSP10 (11751237_a_at) / RFU ID3 (11757404_x_at) / Fold change /veh ID3 (11757404_x_at) / RFU PLEKHG5 (11737974_s_at) / Fold change /veh PLEKHG5 (11737974_s_at) / RFU LRRC4B (11730491_at) / Fold change /veh LRRC4B (11730491_at) / RFU GIMAP4 (11747438_a_at) / Fold change /veh GIMAP4 (11747438_a_at) / RFU KRT8 (11758183_x_at) / Fold change /veh KRT8 (11758183_x_at) / RFU CNN1 (11734310_a_at) / Fold change /veh CNN1 (11734310_a_at) / RFU VPS37D (11726825_at) / Fold change /veh VPS37D (11726825_at) / RFU C10orf10 (11716522_x_at) / Fold change /veh C10orf10 (11716522_x_at) / RFU KIR2DL2 /// KIR2DL4 /// KIR2DL5A /// KIR2DL5B /// KIR2DS1 /// KIR2DS2 /// KIR2DS3 /// KIR2DS4 /// KIR3DL3 /// KIR3DL3 /// KIR3DS1 (11738374_at) / Fold change /veh KIR2DL2 /// KIR2DL4 /// KIR2DL5A /// KIR2DL5B /// KIR2DS1 /// KIR2DS2 /// KIR2DS3 /// KIR2DS4 /// KIR3DL3 /// KIR3DL3 /// KIR3DS1 (11738374_at) / RFU C1QL1 (11718748_at) / Fold change /veh C1QL1 (11718748_at) / RFU TMPRSS4 (11747572_a_at) / Fold change /veh TMPRSS4 (11747572_a_at) / RFU HAMP (11756126_x_at) / Fold change /veh HAMP (11756126_x_at) / RFU RNFT2 (11725882_a_at) / Fold change /veh RNFT2 (11725882_a_at) / RFU NR4A2 (11747474_a_at) / Fold change /veh NR4A2 (11747474_a_at) / RFU ABCC12 (11746883_a_at) / Fold change /veh ABCC12 (11746883_a_at) / RFU TMEM136 (11760407_x_at) / Fold change /veh TMEM136 (11760407_x_at) / RFU CLDN22 /// WWC2 (11732394_at) / Fold change /veh CLDN22 /// WWC2 (11732394_at) / RFU HLA-DPB1 (11760878_x_at) / Fold change /veh HLA-DPB1 (11760878_x_at) / RFU SPINT1 (11716480_a_at) / Fold change /veh SPINT1 (11716480_a_at) / RFU GAP43 (11754022_s_at) / Fold change /veh GAP43 (11754022_s_at) / RFU A4GNT (11735810_at) / Fold change /veh A4GNT (11735810_at) / RFU PRB3 (11715151_x_at) / Fold change /veh PRB3 (11715151_x_at) / RFU TUBB4B (11761932_at) / Fold change /veh TUBB4B (11761932_at) / RFU CAPN14 (11732068_a_at) / Fold change /veh CAPN14 (11732068_a_at) / RFU TMCC2 (11721928_a_at) / Fold change /veh TMCC2 (11721928_a_at) / RFU IRGQ (11745062_a_at) / Fold change /veh IRGQ (11745062_a_at) / RFU FAM174B (11720279_a_at) / Fold change /veh FAM174B (11720279_a_at) / RFU TMPRSS4 (11748680_a_at) / Fold change /veh TMPRSS4 (11748680_a_at) / RFU FAM212B (11763350_a_at) / Fold change /veh FAM212B (11763350_a_at) / RFU PLEKHG5 (11743358_a_at) / Fold change /veh PLEKHG5 (11743358_a_at) / RFU ZSCAN30 (11745921_a_at) / Fold change /veh ZSCAN30 (11745921_a_at) / RFU CMKLR1 (11741424_a_at) / Fold change /veh CMKLR1 (11741424_a_at) / RFU LOC101060620 /// MAPK8IP1 (11723275_at) / Fold change /veh LOC101060620 /// MAPK8IP1 (11723275_at) / RFU SPTSSB (11747773_x_at) / Fold change /veh SPTSSB (11747773_x_at) / RFU PRSS12 (11739890_at) / Fold change /veh PRSS12 (11739890_at) / RFU BIN1 (11741810_x_at) / Fold change /veh BIN1 (11741810_x_at) / RFU WNT11 (11732464_a_at) / Fold change /veh WNT11 (11732464_a_at) / RFU C10orf10 (11716521_a_at) / Fold change /veh C10orf10 (11716521_a_at) / RFU C5orf56 (11738089_at) / Fold change /veh C5orf56 (11738089_at) / RFU CYB561 (11721691_x_at) / Fold change /veh CYB561 (11721691_x_at) / RFU ANKRD19P (11752326_a_at) / Fold change /veh ANKRD19P (11752326_a_at) / RFU OR2T12 /// OR2T33 /// OR2T8 (11738714_s_at) / Fold change /veh OR2T12 /// OR2T33 /// OR2T8 (11738714_s_at) / RFU VCAN (11748164_a_at) / Fold change /veh VCAN (11748164_a_at) / RFU JSRP1 (11732532_at) / Fold change /veh JSRP1 (11732532_at) / RFU KRTAP10-11 (11738290_x_at) / Fold change /veh KRTAP10-11 (11738290_x_at) / RFU MYO3A (11730013_a_at) / Fold change /veh MYO3A (11730013_a_at) / RFU EBF3 (11725865_a_at) / Fold change /veh EBF3 (11725865_a_at) / RFU CAMK2N1 (11719241_x_at) / Fold change /veh CAMK2N1 (11719241_x_at) / RFU C5orf56 (11738088_a_at) / Fold change /veh C5orf56 (11738088_a_at) / RFU OLFML3 (11715873_a_at) / Fold change /veh OLFML3 (11715873_a_at) / RFU LOC100653217 /// NTM (11731650_a_at) / Fold change /veh LOC100653217 /// NTM (11731650_a_at) / RFU MAPK11 (11762145_a_at) / Fold change /veh MAPK11 (11762145_a_at) / RFU FIZ1 (11724087_x_at) / Fold change /veh FIZ1 (11724087_x_at) / RFU OASL (11726364_x_at) / Fold change /veh OASL (11726364_x_at) / RFU SOX15 (11748057_x_at) / Fold change /veh SOX15 (11748057_x_at) / RFU CD79A (11719716_a_at) / Fold change /veh CD79A (11719716_a_at) / RFU HIST1H1D (11736915_at) / Fold change /veh HIST1H1D (11736915_at) / RFU CASKIN2 (11723855_a_at) / Fold change /veh CASKIN2 (11723855_a_at) / RFU LOC730098 (11760151_x_at) / Fold change /veh LOC730098 (11760151_x_at) / RFU OR4N2 (11742367_at) / Fold change /veh OR4N2 (11742367_at) / RFU PRRT2 (11749266_a_at) / Fold change /veh PRRT2 (11749266_a_at) / RFU SNX32 (11753110_a_at) / Fold change /veh SNX32 (11753110_a_at) / RFU CDHR5 (11726645_a_at) / Fold change /veh CDHR5 (11726645_a_at) / RFU RCAN1 (11760418_a_at) / Fold change /veh RCAN1 (11760418_a_at) / RFU FAM167A (11723789_a_at) / Fold change /veh FAM167A (11723789_a_at) / RFU FAM26E (11764081_at) / Fold change /veh FAM26E (11764081_at) / RFU ISYNA1 (11749810_s_at) / Fold change /veh ISYNA1 (11749810_s_at) / RFU ACY1 (11761880_at) / Fold change /veh ACY1 (11761880_at) / RFU 11764098_at / Fold change /veh 11764098_at / RFU SAMD14 (11745864_x_at) / Fold change /veh SAMD14 (11745864_x_at) / RFU NPB (11741838_a_at) / Fold change /veh NPB (11741838_a_at) / RFU TMPRSS6 (11731388_a_at) / Fold change /veh TMPRSS6 (11731388_a_at) / RFU KRTAP10-2 (11738614_at) / Fold change /veh KRTAP10-2 (11738614_at) / RFU ARHGAP8 /// PRR5-ARHGAP8 (11727945_x_at) / Fold change /veh ARHGAP8 /// PRR5-ARHGAP8 (11727945_x_at) / RFU KRTAP5-7 /// NADSYN1 (11734609_at) / Fold change /veh KRTAP5-7 /// NADSYN1 (11734609_at) / RFU RASL12 (11751679_a_at) / Fold change /veh RASL12 (11751679_a_at) / RFU CDKN2B (11736163_a_at) / Fold change /veh CDKN2B (11736163_a_at) / RFU PRF1 (11729649_at) / Fold change /veh PRF1 (11729649_at) / RFU, ZNF638 /// ZNF638-IT1 / Fold change vs veh, ZNF638 /// ZNF638-IT1 / RFU, PANK3 / Fold change vs veh, PANK3 / RFU, SH3YL1 / Fold change vs veh, SH3YL1 / RFU, ZEB2 / Fold change vs veh, ZEB2 / RFU, NRIP1 / Fold change vs veh, NRIP1 / RFU, PTTG1IP / Fold change vs veh, PTTG1IP / RFU, CAPN2 / Fold change vs veh, CAPN2 / RFU, MED14 / Fold change vs veh, MED14 / RFU, SNORA58 / Fold change vs veh, SNORA58 / RFU, C1orf63 / Fold change vs veh, C1orf63 / RFU, LRRFIP1 / Fold change vs veh, LRRFIP1 / RFU, NDUFAF7 / Fold change vs veh, NDUFAF7 / RFU, SLC12A2 / Fold change vs veh, SLC12A2 / RFU, IBTK / Fold change vs veh, IBTK / RFU, ESF1 / Fold change vs veh, ESF1 / Fold change vs veh, TMEM50B / RFU, TAOK1 / Fold change vs veh, TAOK1 / RFU, ACBD3 / Fold change vs veh, ACBD3 / RFU, TMA16 / Fold change vs veh, TMA16 / RFU, RWDD3 / Fold change vs veh, RWDD3 / RFU, BCAT1 / Fold change vs veh, BCAT1 / RFU, EDEM3 / Fold change vs veh, EDEM3 / RFU, TMEM33 / Fold change vs veh, TMEM33 / RFU, WDR75 / Fold change vs veh, WDR75 / RFU, AHCTF1 / Fold change vs veh, AHCTF1 / RFU, TFRC / Fold change vs veh, TFRC / RFU, ZDHHC17 / Fold change vs veh, ZDHHC17 / RFU, NOM1 / Fold change vs veh, NOM1 / RFU, ARL8B / Fold change vs veh, ARL8B / RFU, ZBTB11 / Fold change vs veh, ZBTB11 / RFU, TAMM41 / Fold change vs veh, TAMM41 / RFU, KIAA1704 /// LOC100996395 / Fold change vs veh, KIAA1704 /// LOC100996395 / RFU, ING1 / Fold change vs veh, ING1 / RFU, TRMT61B / Fold change vs veh, TRMT61B / RFU, FUBP3 / Fold change vs veh, FUBP3 / RFU, TP53 / Fold change vs veh, TP53 / RFU, TNKS2 / Fold change vs veh, TNKS2 / RFU, ZFP14 / Fold change vs veh, ZFP14 / RFU, ACTR2 / Fold change vs veh, ACTR2 / RFU, PPP3R1 / Fold change vs veh, PPP3R1 / RFU, PIK3R1 / Fold change vs veh, PIK3R1 / RFU, HNRNPA1 / Fold change vs veh, HNRNPA1 / RFU, RNF170 / Fold change vs veh, RNF170 / RFU, ZNF28 / Fold change vs veh, ZNF28 / RFU, RNGTT / Fold change vs veh, RNGTT / RFU, OGT / Fold change vs veh, OGT / RFU, BRD1 / Fold change vs veh, BRD1 / RFU, MARS / Fold change vs veh, MARS / RFU, ZNF655 / Fold change vs veh, ZNF655 / RFU, FAHD1 / Fold change vs veh, FAHD1 / RFU, BDP1 / Fold change vs veh, BDP1 / RFU, LRRCC1 / Fold change vs veh, LRRCC1 / RFU, ARID1A / Fold change vs veh, ARID1A / RFU, ZNF146 / Fold change vs veh, ZNF146 / RFU, ZNF330 / Fold change vs veh, ZNF330 / RFU, GPN3 / Fold change vs veh, GPN3 / RFU, C9orf123 / Fold change vs veh, C9orf123 / RFU, N4BP2L2 / Fold change vs veh, N4BP2L2 / RFU, ARFIP1 / Fold change vs veh, ARFIP1 / RFU, FAM179B / Fold change vs veh, FAM179B / RFU, BCL10 / Fold change vs veh, BCL10 / RFU, UHRF1BP1L / Fold change vs veh, UHRF1BP1L / RFU, BET1 / Fold change vs veh, BET1 / RFU, CNOT2 / Fold change vs veh, CNOT2 / RFU, ZNF268 / Fold change vs veh, ZNF268 / Fold change vs veh, ZNF507 / RFU, DGCR2 / Fold change vs veh, DGCR2 / RFU, WDSUB1 / Fold change vs veh, WDSUB1 / Fold change vs veh, HSP90B1 /// MIR3652 / RFU, ADSS / Fold change vs veh, ADSS / RFU, GK / Fold change vs veh, GK / RFU, ZNF148 / Fold change vs veh, ZNF148 / RFU, TAF9 / Fold change vs veh, TAF9 / RFU, SLC1A5 / Fold change vs veh, SLC1A5 / RFU, SLMO2 / Fold change vs veh, SLMO2 / RFU, ABCC4 / Fold change vs veh, ABCC4 / RFU, LOC101060439 /// RAP1B / Fold change vs veh, LOC101060439 /// RAP1B / RFU, RFX7 / Fold change vs veh, RFX7 / RFU, GTPBP10 / Fold change vs veh, GTPBP10 / RFU, CNEP1R1 / Fold change vs veh, CNEP1R1 / RFU, BIVM-ERCC5 /// ERCC5 / Fold change vs veh, BIVM-ERCC5 /// ERCC5 / RFU, ILF3 / Fold change vs veh, ILF3 / RFU 11762660_at / Fold change /veh 11762660_at / RFU VCAN (11757783_s_at) / Fold change /veh VCAN (11757783_s_at) / RFU DDX43 (11728927_at) / Fold change /veh DDX43 (11728927_at) / RFU KRT8 (11758188_x_at) / Fold change /veh KRT8 (11758188_x_at) / RFU NKD1 (11759106_at) / Fold change /veh NKD1 (11759106_at) / RFU SRD5A1 (11742802_a_at) / Fold change /veh SRD5A1 (11742802_a_at) / RFU TPSAB1 /// TPSB2 (11721975_s_at) / Fold change /veh TPSAB1 /// TPSB2 (11721975_s_at) / RFU GSTM3 (11746129_a_at) / Fold change /veh GSTM3 (11746129_a_at) / RFU IL23R (11737362_x_at) / Fold change /veh IL23R (11737362_x_at) / RFU TMEM51 (11727254_a_at) / Fold change /veh TMEM51 (11727254_a_at) / RFU PIWIL2 (11732686_x_at) / Fold change /veh PIWIL2 (11732686_x_at) / RFU ORM1 (11744905_x_at) / Fold change /veh ORM1 (11744905_x_at) / RFU CCDC152 (11743942_at) / Fold change /veh CCDC152 (11743942_at) / RFU ECM1 (11717891_a_at) / Fold change /veh ECM1 (11717891_a_at) / RFU IL23R (11748794_a_at) / Fold change /veh IL23R (11748794_a_at) / RFU TNFAIP8L3 (11732012_x_at) / Fold change /veh TNFAIP8L3 (11732012_x_at) / RFU MBOAT4 (11741988_at) / Fold change /veh MBOAT4 (11741988_at) / RFU 11764193_at / Fold change /veh 11764193_at / RFU TMEM53 (11763286_at) / Fold change /veh TMEM53 (11763286_at) / RFU MAGEB2 (11727129_at) / Fold change /veh MAGEB2 (11727129_at) / RFU TMEM200A (11744735_a_at) / Fold change /veh TMEM200A (11744735_a_at) / RFU CCDC152 (11751479_a_at) / Fold change /veh CCDC152 (11751479_a_at) / RFU FAM211A (11726209_a_at) / Fold change /veh FAM211A (11726209_a_at) / RFU RGS16 (11746705_a_at) / Fold change /veh RGS16 (11746705_a_at) / RFU VCAN (11755009_s_at) / Fold change /veh VCAN (11755009_s_at) / RFU RHOB (11743442_s_at) / Fold change /veh RHOB (11743442_s_at) / RFU RGS16 (11720943_a_at) / Fold change /veh RGS16 (11720943_a_at) / RFU RGS16 (11720944_at) / Fold change /veh RGS16 (11720944_at) / RFU, VPS4B / Fold change vs veh, VPS4B / RFU, CREB1 / Fold change vs veh, CREB1 / RFU, DNAJC13 / Fold change vs veh, DNAJC13 / RFU, GNAQ / Fold change vs veh, GNAQ / RFU, CDK5R1 / Fold change vs veh, CDK5R1 / RFU, ZRANB3 / Fold change vs veh, ZRANB3 / RFU, CUL4A / Fold change vs veh, CUL4A / RFU, CCNY / Fold change vs veh, CCNY / RFU, UFL1 / Fold change vs veh, UFL1 / RFU, COG3 / Fold change vs veh, COG3 / RFU, DIAPH2 / Fold change vs veh, DIAPH2 / RFU, SKA2 / Fold change vs veh, SKA2 / RFU, AFF3 / Fold change vs veh, AFF3 / RFU, LMF1 / Fold change vs veh, LMF1 / RFU, IPO11 / Fold change vs veh, IPO11 / RFU, DFFB / Fold change vs veh, DFFB / RFU, FOXP1 / Fold change vs veh, FOXP1 / RFU, CARD8 / Fold change vs veh, CARD8 / RFU, STRN3 / Fold change vs veh, STRN3 / RFU, ADK / Fold change vs veh, ADK / RFU, RASSF2 / Fold change vs veh, RASSF2 / RFU, WIPF1 / Fold change vs veh, WIPF1 / RFU, LARP1B / Fold change vs veh, LARP1B / RFU, RASA1 / Fold change vs veh, RASA1 / RFU, RB1 / Fold change vs veh, RB1 / RFU, PPFIA1 / Fold change vs veh, PPFIA1 / RFU, MAT2A / Fold change vs veh, MAT2A / RFU, CCT5 / Fold change vs veh, CCT5 / RFU, WDR92 / Fold change vs veh, WDR92 / RFU, CUX1 / Fold change vs veh, CUX1 / RFU, TTC7A / Fold change vs veh, TTC7A / RFU, TMEM135 / Fold change vs veh, TMEM135 / RFU, DEPTOR / Fold change vs veh, DEPTOR / RFU, CPM / Fold change vs veh, CPM / RFU, DNAJB6 / Fold change vs veh, DNAJB6 / RFU, CACNA2D3 / Fold change vs veh, CACNA2D3 / RFU, DTX4 / Fold change vs veh, DTX4 / RFU, TFCP2 / Fold change vs veh, TFCP2 / RFU, GMCL1 /// GMCL1P1 / Fold change vs veh, GMCL1 /// GMCL1P1 / RFU, AEBP2 / Fold change vs veh, AEBP2 / RFU, SNHG1 /// SNORD22 /// SNORD25 /// SNORD26 /// SNORD27 /// SNORD28 /// SNORD29 /// SNORD31 / Fold change vs veh, SNHG1 /// SNORD22 /// SNORD25 /// SNORD26 /// SNORD27 /// SNORD28 /// SNORD29 /// SNORD31 / Fold change (Aza/veh), C12orf56 (ProbeSet 11735607_a_at) / Fold change (ACY-1035/veh), C12orf56 (ProbeSet 11735607_a_at) / Fold change (Aza/veh), FGFR1OP (ProbeSet 11751329_s_at) / Fold change (ACY-1035/veh), FGFR1OP (ProbeSet 11751329_s_at) / Fold change (Aza/veh), VPS36 (ProbeSet 11739960_a_at) / Fold change (ACY-1035/veh), VPS36 (ProbeSet 11739960_a_at) / RFU SYPL1 (11715823_x_at) / Fold change /veh SYPL1 (11715823_x_at) / RFU IGFBP7 (11715501_s_at) / Fold change /veh IGFBP7 (11715501_s_at) / RFU REEP3 (11722064_at) / Fold change /veh REEP3 (11722064_at) / RFU IGLL1 (11728026_x_at) / Fold change /veh IGLL1 (11728026_x_at): dose or concentration left out as unconfirmed", "conditions": "MV-4-11 cells, 48 hours", "data": [{"smiles": "Nc1ncn([C@@H]2O[C@H](CO)[C@@H](O)[C@H]2O)c(=O)n1", "note": "[azacitidine]", "values": [{"measurement": "Fold change /veh ISYNA1 (11749810_s_at)", "value": 1.06}]}]}
